# Measured values published in patent WO2010003376A1, “Methods for treatment and/or prevention of cancer with andrographolide (and) and use thereof” (Chinese University of Hong Kong CUHK, priority 2008, dated 2010).
# Like-named read-outs stand apart in the source and are kept apart here.
# Key:
# [1] = test system: HepG2 cells, the human liver cancer cells; test: Neutral red assay (cell viability), HepG2; format: cell-based; conditions: for IC50: Homo sapiens, read-out: IC50 (concentration that reduces cell viability by 50%)
# [2] = test system: WRL 68, human normal liver embryo cells; test: Neutral red assay (cell viability), WRL 68; format: cell-based; conditions: for IC50: Homo sapiens, WRL68, read-out: IC50 (concentration that reduces cell viability by 50%)
# [3] = test system: Clone 9, rat normal liver cells; test: Neutral red assay (cell viability), Clone 9; format: cell-based; conditions: for IC50: Rattus norvegicus, read-out: IC50 (concentration that reduces cell viability by 50%)
# [4] = test system: HepG2 cells; test: Flow cytometry (cell cycle analysis, PI staining); format: cell-based, human
# [5] = test system: HepG2 cells; test: DNA fragmentation (DNA gel electrophoresis); format: cell-based, human; conditions: 50 μM, 72 hrs
# [6] = test system: gene expressions of HepG2 cells; test: cDNA microarray analysis of gene expression (human toxicology and drug metabolism); format: cell-based; conditions: 16 μM, 48 hrs, vs control
# [7] = test system: hepatocarcinogenesis in rats (DEN & CCl4); test: Gross examination of rat liver, DEN/CCl4 hepatocarcinogenesis; format: in vivo
# [8] = test system: hepatocarcinogenesis in rats (DEN & CCl4); test: Relative liver weight, DEN/CCl4 hepatocarcinogenesis; format: in vivo, rat; conditions: both promotion and progression, 10 mg/kg orally
# [9] = test system: liver damage in rats (DEN & CCl4); test: Serum AST and ALT assays, DEN/CCl4 hepatocarcinogenesis; format: in vivo, rat; conditions: 10 mg/kg orally
# [10] = test system: rat liver (DEN & CCl4); test: Hematoxylin & Eosin staining of rat liver sections; format: in vivo; conditions: 10 mg/kg orally
# [11] = test system: GST-P; test: Immunohistochemical staining of GST-P foci in rat liver; format: in vivo
# [12] = test system: PCNA; test: Western blot of PCNA in rat liver; format: in vivo; conditions: 10 mg/kg orally; for PCNA expression (PCNA : β-actin ratio): vs positive control
# [13] = test system: Bax; test: Western blot of Bax in rat liver; format: in vivo; conditions: both experiments, 10 mg/kg orally
# [14] = test system: Bcl-2; test: Western blot of Bcl-2 in rat liver; format: in vivo; conditions: both experiments, 10 mg/kg orally
# [15] = test system: p21 (Waf1/Cip1/Sdi1); test: Western blot of p21 in rat liver; format: in vivo; conditions: both experiments, 10 mg/kg orally, vs positive control
# [16] = test system: total p53 (wild type and mutant); test: Western blot of total p53 in rat liver nuclei; format: in vivo; conditions: 10 mg/kg orally
# [17] = test system: wild type p53; test: Immunoprecipitation and western blot of wild type p53 in rat liver nuclei; format: in vivo; conditions: 10 mg/kg orally
# [18] = test system: Mdm2; test: Western blot of Mdm2 in rat liver nuclei; format: in vivo; conditions: both experiments, 10 mg/kg orally, vs positive control (p < 0.05)
# [19] = test system: p53 mRNA; test: Semi-quantitative RT-PCR of p53 mRNA in rat liver; format: in vivo; conditions: both experiments, 10 mg/kg orally, vs positive control (p < 0.05)
# [20] = test system: Mdm2 mRNA; test: Semi-quantitative RT-PCR of Mdm2 mRNA in rat liver; format: in vivo; conditions: both experiments, 10 mg/kg orally, vs positive control (p < 0.05)
# [21] = progression experiment, p < 0.05
smiles,measurement,setting,value
"C=C1CC[C@@H]2[C@](C)(CO)[C@H](O)CC[C@@]2(C)[C@@H]1C/C=C1/C(=O)OC[C@H]1O [AND, andrographolide]",inhibitory effect on the proliferation of HepG2,"[1]; HepG2, human liver cancer cell line (Fig. 1)",significantly inhibitory effect
same,IC50,"[1]; HepG2, 24 hrs",17.5 µM
same,IC50,"[1]; HepG2, 48 hrs",16 µM
same,IC50,"[1]; HepG2, 72 hrs",17 µM
same,IC50 for HepG2 cells compared with WRL 68 cells,"[1]; all three time periods (24, 48 and 72 hrs), P < 0.05",significantly lower
same,IC50,"[2]; WRL 68, 24 hrs",57 µM
same,IC50,"[2]; WRL 68, 48 hrs",30 µM
same,IC50,"[2]; WRL 68, 72 hrs",35 µM
same,cytotoxicity,"[2]; WRL 68, at a concentration of 18 μM (Fig. 2)",significant cytotoxicity was also detectable
same,cytotoxicity,"[3]; Clone 9, at a concentration of 18 μM (Fig. 3)",significant cytotoxicity was also detectable
same,IC50,"[3]; Clone 9, 24 hrs",22 µM
same,IC50,"[3]; Clone 9, 48 hrs",18 µM
same,IC50,"[3]; Clone 9, 72 hrs",18 µM
same,percentage of cells suspended in the sub G1 phase of the cell cycle,"[4]; 25 μM (Fig. 7, 48 hrs)",13.1%
same,accumulation of cells in G0/G1 phase of the cell cycle,"[4]; 25 μM, 48 hrs (Fig. 7)",67.1%
same,populations of cells suspended in S and G2/M phases,"[4]; 12.5 and 25 μM AND, 48 hrs, vs control (P < 0.05)",significantly decreased
same,accumulation of cells in the sub G1 and G0/G1 phases,"[4]; 12.5 and 25 μM AND, 48 hrs, vs control cells",significantly induced the accumulation of cells
same,cells suspended in sub G1 phase,"[4]; 20 and 25 μM AND, 24 hrs, vs 1% DMSO",more cells were suspended in sub Gi phase than those treated with DMSO only
same,"population of cells suspended in G0/G1, S and G2/M phases","[4]; 20 and 25 μM AND, 24 hrs, vs control cells (P > 0.05)",no significant changes
same,DNA fragmentation,[5],fragmentation at around 200 bp was detected
same,expression of BCL2L2 (Bcl-w) gene,[6],down-regulated
same,expression of BCL2 gene,[6],down-regulated
same,expression of CCND1 gene,[6],down-regulated
same,expression of CHEK2 gene,[6],down-regulated
same,expression of CYP 2A6 gene,[6],down-regulated
same,expression of CYP 2D6 gene,[6],down-regulated
same,expression of IL1B gene,[6],under-expressed
same,expression of NFKB2 gene,[6],under-expressed
same,expression of NQO1 (NAD(P)H dehydrogenase quinone 1) gene,[6],up-regulated
same,expression of RB1 gene,[6],up-regulated
same,expression of SOD1 (superoxide dismutase 1) gene,[6],up-regulated
same,expression of TYMS (thymidylate synthetase) gene,[6],up-regulated
same,expression of XDH (xanthine dehydrogenase) gene,[6],up-regulated
same,number of genes down-regulated 3-folds or more,[6],forty-two
same,number of genes up-regulated 3-folds or more,[6],six
same,gross appearance of liver,"[7]; progression experiment, 10 mg/kg orally, 56th week","some nodules present on the surface of the AND-treated livers, but the structure of the livers generally resembled that of the normal livers"
same,gross appearance of liver,"[7]; promotion experiment, 10 mg/kg orally once daily, 28 weeks",had a smooth surface and generally resembled the negative control livers
same,relative liver weight (liver weight/body weight),[8]; vs negative control,No significant difference
same,relative liver weight (liver weight/body weight),[8]; vs positive control,significant reduction
same,serum ALT level,[9]; [21],significant reduction
same,serum AST level,[9]; [21],significant reduction
same,serum ALT level,"[9]; promotion experiment, p < 0.01",significant reduction
same,serum AST level,"[9]; promotion experiment, p < 0.01",significant reduction
same,liver histology (H & E staining),[10]; progression experiment,normal alignment of hepatocytes around central vein
same,liver histology (H & E staining),[10]; promotion experiment,Liver structure was restored and hepatocyte arrangement was not as distorted as that of the positive control sections. Vacuolization was reduced and distinct cytoplasm was visible
same,number and area of GST-P positive foci,"[11]; 10 mg/kg for 24 and 52 weeks, promotion and progression stages",a decrease in the number and area of GST-P positive foci
same,GST-P expression in liver section,"[11]; promotion experiment, 10 mg/kg orally",the expression of GST-P was present but the affected area was reduced
same,PCNA expression,[12]; both experiments,reduced in both experiments
same,PCNA expression (PCNA : β-actin ratio),[12]; progression experiment,The level of PCNA expression in DEN-CCl4 treated rat was found to be significantly higher than that in the negative control and AND-treated groups
same,PCNA expression (PCNA : β-actin ratio),[12]; promotion experiment,no significant difference
same,Bax expression,[13],a reduction of Bax expression
same,protein levels of Bax (Bax : β-actin ratio),[13]; vs positive control (p < 0.05),significantly increased
same,Bcl-2 expression,[14],an increase in Bcl-2 expression
same,Bcl-2 protein expression (Bcl-2 : β-actin ratio),[14]; vs positive control (p < 0.05),significantly lower
same,levels of p21 (p21 : β-actin ratio),[15],"higher than positive control groups, but no significant difference is observed"
same,total p53 protein level (discussion),[16]; AND-treated group,the total p53 protein was increased
same,levels of total p53 protein expression,"[16]; both experiments, vs negative control (no significant difference)",higher levels of total p53 protein expression
same,levels of total p53 (total p53 : β-actin ratio),"[16]; both experiments, vs positive control",no significant difference
same,level of wild type p53 (wt. p53 : β-actin ratio),"[17]; progression experiment, vs positive control (p < 0.05)",a significant increase
same,level of wild type p53 (wt. p53 : β-actin ratio),"[17]; promotion experiment, vs positive control",no significant difference
same,levels of Mdm2 protein (Mdm2 : β-actin ratio),[18],significant decrease
same,p53 mRNA expression (p53 : β-actin),[19],significant reduction
same,Mdm2 mRNA expression (Mdm2 : β-actin),[20],significantly reduced
